The values that follow come from patent US20100113371A9, “Derivatives Of Pentose Monosaccharides As Anti-Inflammatory Compounds” (RANBAXY LABORATORIES LIMITED INC., priority 2004, published 2010).

The experiment relates to LTB4 release from neutrophils. The experiment is described as follows: A23187 induced LTB4 release. The experiment is classed as cell-based. The following applies: Neutrophil; neutrophils from healthy human donors, test drug 1 hour at 37° C., 0.3 μg/ml A23187 10 min, LTB4 ELISA; range over the group of compounds; read-out: IC50, percent inhibition of LTB4 release. As for the experimental part: The compounds of the present invention are tested in one or more of the assays described herein. Standard assays are used to evaluate activity of compounds in present invention on inflammatory cells. Attenuation of agonist-induced release of lipid mediator of neutrophil chemotaxis, leukotriene B4 (LTB4), is used to evaluate inhibitory effect on neutrophils.
Venous blood was collected from healthy human donors using heparin as an anti-coagulant. Neutrophils were isolated from freshly drawn blood after dextran sedimentation and ficoll separation (Eur J. Biochem. 169, 175, 1987). 180 μl of the of neutrophil suspension (0.2×10^6 cells/ml) was taken and added 19 μL of Hank's Buffer salt solution along with 1 μL of the test drug (200 times concentrated) in a 24 well plate and incubated at 37° C. for 1 hour. 3 minutes before the end of test compound incubation, 0.25 mM Ca^++/Mg^++ were added. Then, 0.3 μg/ml A23187 (Sigma Chem, USA) was added and incubated for further 10 min at 37° C. The reaction was stopped by adding 80 μL of cold methanol and centrifuged to remove cell debris (J Pharmacol Exp Ther. 297:267, 2001). The samples were analysed for LTB4 release using LTB4 ELISA kits (Assay Design Inc., USA). The amount of LTB4 released was quantified and percent inhibition of LTB4 release was calculated with respect to the difference between the A23187 stimulated and negative control cells, to compute IC50 values.
(In general: An ELISA detects its analyte on a solid surface through an enzyme-linked reagent.)

As for `CCCCCCCCCCCCOCC12OC(CNC(=O)Cc3ccc(F)cc3)C(O)C1OC(C)(C)O2` [Compound 69, 1-O-Dodecyl-2,3-O-isopropylidene-6-deoxy-6-{[(4-fluorophenyl)acetyl}amino]-α-L-sorbofuranoside], the IC50 (in general, the midpoint of a concentration-inhibition curve) was ≥ 1300 nM.
Consider `CCCCCCCCCCCCOCC12OC(CNC(=O)c3ccncc3)C(O)C1OC(C)(C)O2` [Compound 78, 1-O-Dodecyl-2,3-O-isopropylidene-6-deoxy-6-{[(pyridin-4-yl)-carbonyl]-amino}-α-L-sorbofuranoside], for which the 50% inhibitory concentration (IC50) is ≥ 1300 nM.
Then `CCCCCCCCCCCCOCC12OC(CNC(=O)Cc3ccc(Cl)c(Cl)c3)C(O)C1OC(C)(C)O2` [Compound 94, 1-O-Dodecyl-2,3-O-isopropylidene-6-deoxy-6-{[(3,4-dichlorophenyl)acetyl]amino}-α-L-sorbofuranoside], with ≥ 1300 nM; and `CCCCCCCCCCCCOCC12OC(CNC(=O)Cc3ccc(OC(F)(F)F)cc3)C(O)C1OC(C)(C)O2` [Compound 106, 1-O-Dodecyl-2,3-O-isopropylidene-6-deoxy-6-{[(4-trifluoromethoxyphenyl)acetyl]amino}-α-L-sorbofuranoside], with ≥ 1300 nM; and `CCCCCCCOCC12OC(C)C(C)(OC(=O)NS(=O)(=O)c3ccc(Cl)cc3)C1OC(C)(C)O2` [Compound 116, (4ξ)-1-O-Heptyl-2,3-O-isopropylidene-4-C-methyl-4-O-[{[(4-chlorophenyl)sulphonyl]amino}-carbonyl]-6-deoxy-α-L-erythro-hex-2-ulofuranoside], with ≥ 1300 nM.
Consider `CCCCCCCOCC12OC(C)C(C)(OC(=O)NS(=O)(=O)c3ccccc3)C1OC(C)(C)O2` [Compound 117, (4ξ)-1-O-Heptyl-2,3-O-isopropylidene-4-C-methyl-4-O-[{[phenylsulphonyl]amino}carbonyl]-6-deoxy-α-L-erythro-hex-2-ulofuranoside], for which the IC50 is ≥ 1300 nM.
On to `CCCCCCCOCC12OC(C)C(C)(OC(=O)NS(=O)(=O)c3ccc(F)cc3)C1OC(C)(C)O2` [Compound 118, (4ξ)-1-O-Heptyl-2,3-O-isopropylidene-4-C-methyl-4-O-[{[(4-fluorophenyl)sulphonyl]amino}-carbonyl]-6-deoxy-α-L-erythro-hex-2-ulofuranoside], for which the IC50 was ≥ 1300 nM.
